Patent CN103285022A, “用于制备治疗多囊卵巢综合征的中药单体组合物及其制备方法” (Second Military Medical University SMMU, priority 2013, dated 2013)

Legend:
[1] = tested on: liver [肝脏]; type: in vivo, rat; settings: for hepatotoxicity: conclusion, given together (27/200/100 mg/kg), 28 days
[2] = tested on: kidney [肾脏]; experiment: Kidney histopathology / renal safety; type: in vivo, rat; settings: conclusion; given together (27/200/100 mg/kg), 28 days
[3] = tested on: polycystic ovary syndrome rat model [多囊卵巢综合征大鼠模型]; experiment: Oestrous cycle by vaginal exfoliative cytology, DHEA-induced PCOS rats; type: in vivo; settings: oral gavage 28 days, then 10 days of vaginal cytology, combination 27/200/100 mg/kg, spironolactone 20 mg/kg
[4] = tested on: polycystic ovary syndrome rat model [多囊卵巢综合征动物模型]; experiment: Ovarian wet weight and ovarian coefficient; type: in vivo; settings: 28 days gavage; ovarian wet weight significantly lower than model group
[5] = tested on: CYP17 mRNA; experiment: RT-PCR of ovarian tissue, CYP17 mRNA; type: in vivo, rat; settings: vs model group, 28 days gavage
[6] = tested on: AR mRNA; experiment: RT-PCR of ovarian tissue, AR mRNA; type: in vivo, rat; settings: vs model group, 28 days gavage
[7] = tested on: 3β-HSD mRNA; experiment: RT-PCR of ovarian tissue, 3β-HSD mRNA; type: in vivo, rat; settings: vs model group, 28 days gavage

Compound	hepatotoxicity [1]	nephrotoxicity [2]	sexual cycle recovery rate [3]	increase of ovarian volume and wet weight in model rats, effect of treatment [4]	liver histopathology ([1]; rat, in vivo)	CYP17 mRNA expression in ovarian tissue [5]	AR mRNA expression in ovarian tissue [6]	3β-HSD mRNA expression in ovarian tissue [7]
O=c1c(O)c(-c2ccc(O)c(O)c2)oc2cc(O)cc(O)c12 [槲皮素, 槲皮素(Quercetin)]	均不具有肝肾毒性	均不具有肝肾毒性	–	–	–	–	–	–
CC(=O)S[C@@H]1CC2=CC(=O)CC[C@]2(C)[C@H]2CC[C@@]3(C)[C@@H](CC[C@@]34CCC(=O)O4)[C@H]12 [螺内酯, 螺内酯(Spironolactone)]	–	–	80%	均可以逆转这种情况	个别出现肝细胞脂肪样变性,胞浆透明度增加,细胞胞浆不清,部分细胞核崩解,肝板破坏,汇管区增粗	显著降低	显著降低	显著降低
C[C@H]1COC2=C1C(=O)C(=O)c1c2ccc2c1CCCC2(C)C [隐丹参酮, 隐丹参酮(Cryptotanshinone)]	均不具有肝肾毒性	均不具有肝肾毒性	–	–	–	–	–	–
O=C(O)[C@H]1O[C@@H](Oc2cc3oc(-c4ccccc4)cc(=O)c3c(O)c2O)[C@H](O)[C@@H](O)[C@@H]1O [黄芩苷, 黄芩苷(Baicalin)]	均不具有肝肾毒性	均不具有肝肾毒性	–	–	–	–	–	–
